Assay results from the supplement of paper PMC10307832.

Legend:
Assay in all cases: relative viability (nuclei count vs DMSO), 5 days (fraction); higher = more cells survive
Zebularine + Linsitinib = compound: O=c1ncccn1[C@@H]1O[C@H](CO)[C@@H](O)[C@H]1O [Zebularine] + C[C@]1(O)C[C@@H](c2nc(-c3ccc4ccc(-c5ccccc5)nc4c3)c3c(N)nccn32)C1 [Linsitinib] (partner 1 µM)
Method in brief: (§1)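 Relative viability divides the nuclei count in treated wells by that in vehicle wells. Lung cancer cell lines were seeded in 1536-well plates, dosed by pin tool the next day, and fixed and stained after 5 days in one step with final 0.05% Triton X-100, 1% formaldehyde and 1 ug/ml Hoechst. Dosing was a single drug or a fixed anchor-drug dose plus five library-drug doses (not always all listed) in √10 steps, and values are medians of duplicate plates imaged at 4×.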

BI-D1870 + Decitabine = compound: CC(C)CCN1c2nc(Nc3cc(F)c(O)c(F)c3)ncc2N(C)C(=O)C1C [BI-D1870] + Nc1ncn([C@H]2C[C@H](O)[C@@H](CO)O2)c(=O)n1 [Decitabine] (partner 2 µM)
Method in brief: as §1

Zebularine + Olaparib = compound: O=c1ncccn1[C@@H]1O[C@H](CO)[C@@H](O)[C@H]1O [Zebularine] + O=C(c1cc(Cc2n[nH]c(=O)c3ccccc23)ccc1F)N1CCN(C(=O)C2CC2)CC1 [Olaparib] (partner 8 µM)
Method in brief: as §1

Zebularine + Vorinostat = compound: O=c1ncccn1[C@@H]1O[C@H](CO)[C@@H](O)[C@H]1O [Zebularine] + O=C(CCCCCCC(=O)Nc1ccccc1)NO [Vorinostat] (partner 1 µM)
Method in brief: as §1

UMC-11
relative viability (Zebularine + Linsitinib; first compound 1 µM): 1.21 | relative viability (Zebularine + Linsitinib; first compound 3.162 µM): 1.02 | relative viability (Zebularine + Linsitinib; first compound 10 µM): 0.691 | relative viability (Zebularine + Linsitinib; first compound 31.62 µM): 0.574 | relative viability (Zebularine + Linsitinib; first compound 100 µM): 0.418 | relative viability (BI-D1870 + Decitabine; first compound 0.04 µM): 0.581 | relative viability (BI-D1870 + Decitabine; first compound 0.1265 µM): 0.466 | relative viability (BI-D1870 + Decitabine; first compound 0.4 µM): 0.669 | relative viability (BI-D1870 + Decitabine; first compound 1.265 µM): 0.674 | relative viability (BI-D1870 + Decitabine; first compound 4 µM): 0.622 | relative viability (Zebularine + Olaparib; first compound 1 µM): 0.407 | relative viability (Zebularine + Olaparib; first compound 3.162 µM): 0.377 | relative viability (Zebularine + Olaparib; first compound 10 µM): 0.346 | relative viability (Zebularine + Olaparib; first compound 31.62 µM): 0.362 | relative viability (Zebularine + Olaparib; first compound 100 µM): 0.293 | relative viability (Zebularine + Vorinostat; first compound 1 µM): 0.388 | relative viability (Zebularine + Vorinostat; first compound 3.162 µM): 0.359 | relative viability (Zebularine + Vorinostat; first compound 10 µM): 0.335 | relative viability (Zebularine + Vorinostat; first compound 31.62 µM): 0.331 | relative viability (Zebularine + Vorinostat; first compound 100 µM): 0.279
